Test results published in patent publication US7960397B2, “6,9-disubstituted purine derivatives and their use as cosmetics and cosmetic compositions” (Institute of Experimental Botany, Academy of Sciences of …, priority 2007, dated 2011).
Read-outs that look alike come from different tables or passages of the source.

What was measured:
[1] = tested on: cytokinin-dependent tobacco callus Nicotiana tabacum L. cv. Wisconsin 38; assay: Cytokinin activity in tobacco callus bioassay; format: cell-based; details: for concentration with highest activity: growth of tobacco callus, four weeks of cultivation, tested 10^−8 M to 10^−4 M; for Activity (%) [10^−5 mol · l^−1 BAP = 100%]: increase of fresh callus weight at the concentration with highest activity, 10^−5 M BAP = 100%
[2] = tested on: Amaranthus caudatus cotyledon/hypocotyl explants; assay: Amaranthus bioassay (betacyanin content); parameters: species or system Amaranthus caudatus var. atropurpurea; details: for concentration with highest activity: betacyanin content after 48 h incubation, tested 10^−8 M to 10^−4 M; for Activity (%) [10^−5 mol · l^−1 BAP = 100%]: betacyanin content at the concentration with highest activity, 10^−5 M BAP = 100%
In short: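 Amaranthus caudatus explants (cotyledons plus hypocotyl) from 72 h dark-grown seedlings were incubated in darkness on medium with 10 mmol Na2HPO4–KH2PO4 pH 6.8, 5 mmol tyrosine and test compound; stock was 10^−3 M in DMSO/water. Betacyanin was measured as A537−A620 and activity expressed relative to 10^−5 M BAP (100%).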

excised wheat leaf tips = assay: Antisenescence test, retention of chlorophyll in excised wheat leaf tips; parameters: species or system Triticum aestivum cv. Hereward; details: for activity (%) [10^−4 mol · l^−1 BAP = 100%]: retention of chlorophyll in excised wheat leaf tips at the concentration with highest activity, 10 replicate determinations; for concentration with highest activity: retention of chlorophyll in excised wheat leaf tips, tested range 10^−8 M to 10^−4 M, 96 h in the dark at 25° C.
In short: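 Winter wheat seedlings (Triticum aestivum cv. Hereward) were raised on vermiculite with Knop's solution at 25° C. for 7 days. Tips of the first leaf, 35 mm long (five tips, 100 mg combined), stood in […] of test solution in microtiter wells. After 96 h in the dark at 25° C., chlorophyll was extracted in 80% ethanol at 80° C. and read at 665 nm. Activity is relative to 10^−4 M BAP (100%).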

[3] = tested on: breast carcinoma cell line MCF-7; assay: In vitro cytotoxicity, Calcein AM assay; details: read-out: GI50 MCF7
Experimental: (§1) Because only metabolically active cells cleave Calcein AM, these assays detect viable cells exclusively. The quantity of reduced Calcein AM corresponds to the number of vital cells in the culture.
(§2) The cells were maintained in Nunc/Corning 80 cm^2 plastic tissue culture flasks and cultured in cell culture medium (DMEM with 5 g/l glucose, 2 mM glutamine, 100 U/ml penicillin, 100 mg/ml streptomycin, 10% fetal calf serum and sodium bicarbonate).
(§3) The cell suspensions that were prepared and diluted according to the particular cell type and the expected target cell density (2,500-30,000 cells per well based on cell growth characteristics) were added by pipette (80 ml) into 96-well microtiter plates. Inoculates were allowed a pre-incubation period of 24 hours at 37° C. and 5% CO2 for stabilization. Four-fold dilutions of the intended test concentration were added at time zero in 20 ml aliquots to the microtiter plate wells. Usually, the compound tested was evaluated at six 4-fold dilutions. […] All drug concentrations were examined in duplicate. Incubations of cells with the tested compounds lasted for 72 hours at 37° C., in a 5% CO2 atmosphere and 100% humidity. At the end of the incubation period, the cells were assayed by using Calcein AM. Ten microliters of the stock solution were pipetted into each well and incubated for 1 hour. Fluorescence (FD) was measured with the Labsystem FIA Reader Fluoroscan Ascent (UK).

human osteosarcoma HOS = assay: In vitro cytotoxicity, Calcein AM assay; details: read-out: GI50 HOS
Experimental: as §1, §2, §3

[4] = tested on: human diploid fibroblasts (HCA cells, HCA20, HCA40, HCA60); assay: Senescent cells (β-galactosidase staining) in culture of human fibroblasts; format: cell-based; details: for SENESCENT CELLS (%) HCA20: human fibroblasts passage 20 (HCA20); for SENESCENT CELLS (%) HCA40: human fibroblasts passage 40 (HCA40); for SENESCENT CELLS (%) HCA60: human fibroblasts passage 60 (HCA60)
In short: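 Fibroblasts taken at passages 20, 40 and 60 were washed and fixed for 5 min at room temperature in 2% formaldehyde/0.2% glutaraldehyde in PBS. After PBS washes, cells were incubated at 37 °C for β-galactosidase staining.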

[5] = tested on: human myeloid leukemia K-562; assay: In vitro cytotoxicity, Calcein AM assay; details: read-out: GI50 K-562
Experimental: as §1, §2, §3

mouse fibroblasts NIH3T3 = assay: In vitro cytotoxicity, Calcein AM assay; details: read-out: GI50 NIH-3T3
Experimental: as §1, §2, §3

[6] = tested on: promyelocytic HL-60 leukemia; assay: In vitro cytotoxicity, Calcein AM assay; details: read-out: GI50 HL60
Experimental: as §1, §2, §3

[7] = tested on: Human T-lymphoblastic leukemia cell line CEM; assay: In vitro cytotoxicity, Calcein AM assay; details: read-out: GI50 CEM
Experimental: as §1, §2, §3

β-adrenergic receptors = assay: Isoproterenol-induced cAMP synthesis in rat C6 glioma; format: cell-based; details: cellular cAMP, simultaneous addition with isoproterenol, 30 min
Experimental: Anti-inflammatory activity. The compounds of formula 1 having anti-inflammatory activities can be used as cosmetics for treating inflammation skin disorders as atopic dermatitis, lichen planus, hyperpigmentation and Herpes simplex lesions. From this reason, rat C6 glioma (ATCC No. CCL107) was cultivated as a monolayer in a serum-free chemically defined medium containing Ham's F10-minimal essential medium (1:1 v/v), 2 mM L-glutamine, 1% (v/v) minimal essential medium vitamins (100×), 1% (v/v) minimal essential medium nonessential amino acids (100×), 100U/ml penicillin, […] streptomycin and 30 nM sodium selenite. Incubation was performed at 37° C. in a humidified atmosphere. The assays were performed in the logarithmic growth phase at a density of 2.5×10^5 cells/cm^2. Intracellular cAMP synthesis was induced by addition of […] (−)isoproterenol. After 30 min incubation at 37° C. the medium was removed and the cellular amount of cAMP was determined using the cAMP-enzyme immunoassay Amersham kit. The I50 value was determined from a dose-response curve in duplicate. The effect of the novel 6,9-disubstituted purines was measured after simultaneous addition with isoproterenol.
As P2Y1-like and A2 purinergic receptors, negatively and positively coupled to adenylate cyclase, respectively, are present in rat C6 glioma, it remains to be determined whether the modulation of the synthesis of cAMP is due to the inhibition of the activation of β-adrenergic receptors by isoproterenol, or due to the activation of purinergic receptors.

| Structure (SMILES) | concentration with highest activity [1] | Activity (%) [10^−5 mol · l^−1 BAP = 100%] [1] [%] | concentration with highest activity [2] | Activity (%) [10^−5 mol · l^−1 BAP = 100%] [2] [%] | activity (%) [10^−4 mol · l^−1 BAP = 100%] (excised wheat leaf tips) [%] | concentration with highest activity (excised wheat leaf tips) | GI50 ([3]; MCF7, 72 hours, Calcein AM) [µM] | GI50 (human osteosarcoma HOS; HOS, 72 hours, Calcein AM) [µM] | SENESCENT CELLS (%) HCA20 [4] [%] | SENESCENT CELLS (%) HCA40 [4] [%] | SENESCENT CELLS (%) HCA60 [4] [%] | GI50 ([5]; K-562, 72 hours, Calcein AM) [µM] | GI50 (mouse fibroblasts NIH3T3; NIH-3T3, 72 hours, Calcein AM) [µM] | GI50 ([6]; HL60, 72 hours, Calcein AM) [µM] | GI50 ([7]; CEM, 72 hours, Calcein AM) [µM] | other results |
| --- | --- | --- | --- | --- | --- | --- | --- | --- | --- | --- | --- | --- | --- | --- | --- | --- |
| Oc1coc(CNc2ncnc3c2ncn3C2CCCCO2)c1 (stereo not drawn) | 10^−6 mol · l^−1 | 91 | 10^−4 mol · l^−1 | 115 | 101 | 10^−4 mol · l^−1 | > 167 | > 167 | 4 | 4 | 16 | > 167 |  |  |  |  |
| CC(C)=CCNc1ncnc2nc[nH]c12 [isopentenylamino / H] |  |  |  |  |  |  | > 167 | > 167 |  |  |  | 147 | > 167 | > 167 | 92.2 |  |
| Cc1cc(CNc2ncnc3c2ncn3C2CCCCO2)ccc1O (stereo not drawn) [4-hydroxy-3-methylbenzylamino / tetrahydropyran-2-yl] | 10^−5 mol · l^−1 | 4 | 10^−4 mol · l^−1 | 7 | 9 | 10^−4 mol · l^−1 | > 167 | > 167 | 4 | 6 | 22 |  | > 167 | > 167 | > 167 |  |
| Oc1cccc(CNc2ncnc3[nH]cnc23)c1 [3-hydroxybenzylamino / H, reference compound] | 10^−5 mol · l^−1 | 116 | 10^−5 mol · l^−1 | 99 | 105.9 | 10^−4 mol · l^−1 | > 167 | > 167 |  |  |  | 128 | > 167 | 79.2 | 90.1 |  |
| Oc1ccccc1CNc1ncnc2[nH]cnc12 [2-hydroxybenzylamino / H, reference compound] | 10^−5 mol · l^−1 | 72.3 | 10^−4 mol · l^−1 | 32.6 | 22.4 | 10^−4 mol · l^−1 | > 167 | > 167 |  |  |  | > 167 | > 167 | 78 | 69.2 |  |
| C/C(=C\CNc1ncnc2c1ncn2C1CCCCO1)CO (stereo not drawn) [6-(E)-(4-hydroxy-3-methylbut-2-en-1-ylamino)-9-(tetrahydropyran-2-yl)purine] | 10^−5 mol · l^−1 | 96.5 | 10^−4 mol · l^−1 | 299.4 | 38.2 | 10^−4 mol · l^−1 |  |  |  |  |  |  |  |  |  | GI50 (mouse fibroblasts NIH3T3; Mus musculus, NIH3T3, 72 h): > 167 µM; GI50 ([6]; Homo sapiens, HL-60, 72 h): > 167 µM; GI50 ([7]; Homo sapiens, 72 h): > 167 µM; GI50 ([3]; Homo sapiens, MCF7, 72 h): > 167 µM; GI50 (human osteosarcoma HOS; Homo sapiens, 72 h): > 167 µM |
| Cc1cc(CNc2ncnc3c2ncn3C2CCCCO2)ccc1O (stereo not drawn) [4-hydroxy-5-methylbenzylamino / tetrahydropyran-2-yl] | 10^−5 mol · l^−1 | 6 | 10^−4 mol · l^−1 | 5 | 3 | 10^−4 mol · l^−1 | > 167 | > 167 | 3 | 4 | 20 |  | > 1670 | > 1670 | > 167 |  |
| c1coc(CNc2ncnc3[nH]cnc23)c1 [furfurylamino / H, reference compound] |  |  |  |  |  |  | > 167 | > 167 |  |  |  | 164 | > 167 | 149 | 155 |  |
| COc1cc(O)cc(OC)c1CNc1ncnc2c1ncn2C1CCCCO1 (stereo not drawn) | 10^−5 mol · l^−1 | 43 | 10^−4 mol · l^−1 | 12 | 22 | 10^−4 mol · l^−1 |  |  | 4 | 5 | 21 |  |  |  |  | Effect (modulation of the activity of β-adrenergic receptors) (β-adrenergic receptors): 1.3-fol fold activation |
| COc1cc(CNc2ncnc3c2ncn3C2CCCCO2)ccc1O (stereo not drawn) | 10^−6 mol · l^−1 | 62 | 10^−4 mol · l^−1 | 57 | 55 | 10^−4 mol · l^−1 |  |  | 4 | 4 | 19 |  |  |  |  | Effect (modulation of the activity of β-adrenergic receptors) (β-adrenergic receptors): 1.6-fold fold activation |
| Oc1ccc(CNc2ncnc3c2ncn3C2CCCCO2)cc1O (stereo not drawn) | 10^−5 mol · l^−1 | 61 | 10^−4 mol · l^−1 | 52 | 71.3 | 10^−4 mol · l^−1 |  |  | 3 | 4 | 15 |  |  |  |  | Effect (modulation of the activity of β-adrenergic receptors) (β-adrenergic receptors): 1.7-fold fold activation |
| c1ccc(CNc2ncnc3nc[nH]c23)cc1 [benzylamino / H, 6-benzylaminopurine, reference compound] | 10^−6 mol · l^−1 | 100 | 10^−5 mol · l^−1 | 100 | 100 | 10^−4 mol · l^−1 |  |  |  |  |  |  |  |  |  | GI50 (mouse fibroblasts NIH3T3; Mus musculus, NIH3T3, 72 h): > 167 µM; GI50 ([6]; Homo sapiens, HL-60, 72 h): > 167 µM; GI50 ([7]; Homo sapiens, 72 h): > 167 µM; GI50 ([3]; Homo sapiens, MCF7, 72 h): 166 µM; GI50 (human osteosarcoma HOS; Homo sapiens, 72 h): > 167 µM; GI50 ([5]; Homo sapiens, K562, 72 h): 139 µM |
